Measured values reported in PMC11477289, “Low-Basicity 5-HT6 Receptor Ligands from the Group of Cyclic Arylguanidine Derivatives and Their Antiproliferative Activity Evaluation” (International Journal of Molecular Sciences, 2024).

Columns and labels:
[1] = target: T1, human 5-HT6 (Homo sapiens, UniProt P50406); assay: Functional evaluation, cAMP (LANCE Ultra) in HEK293 cells; format: cell-based; settings: antagonist mode, cAMP induced by 5-CT 1000 nM
T1 construct: expressed in transfected cells
T1 sequence (P50406 whole entry): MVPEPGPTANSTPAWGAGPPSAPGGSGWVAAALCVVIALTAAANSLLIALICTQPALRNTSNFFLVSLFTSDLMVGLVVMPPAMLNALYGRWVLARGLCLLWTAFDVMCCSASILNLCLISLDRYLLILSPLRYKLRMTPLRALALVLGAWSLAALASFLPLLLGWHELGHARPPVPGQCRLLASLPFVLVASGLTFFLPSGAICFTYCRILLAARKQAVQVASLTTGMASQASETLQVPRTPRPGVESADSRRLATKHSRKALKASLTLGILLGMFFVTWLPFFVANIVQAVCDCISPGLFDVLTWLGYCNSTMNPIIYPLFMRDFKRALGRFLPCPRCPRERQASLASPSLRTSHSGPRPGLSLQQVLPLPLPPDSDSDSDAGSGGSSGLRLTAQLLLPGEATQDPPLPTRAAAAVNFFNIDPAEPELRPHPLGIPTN
Method: The supernatant was aspirated, and the cell pellet was resuspended in a stimulation buffer (1 × HBSS, 5 mM HEPES, 0.5 mM IBMX, 0.1% BSA).
The functional properties of compounds were evaluated using the LANCE Ultra cAMP detection kit (PerkinElmer). […] To investigate the antagonist activity, dopamine for D2R was added at a concentration of 10 nM, and for cell lines with 5-HT7R, 5-HT1AR, or 5-HT6R, 5-CT concentrations were adjusted, being, respectively, 10, 100, and 1000 nM, according to the receptor subtype.
For the quantification of cAMP levels, cells (5 µL) were incubated with a 5 µL mixture of necessary compounds for 30 min at room temperature in a 384-well white opaque microtiter plate (PerkinElmer). After incubation, the reaction was stopped, and cells were lysed by the addition of a 10 µL working solution (5 µL Eu-cAMP and 5 µL ULight-anti-cAMP). The assay plate was incubated for 1 h at room temperature. The time-resolved fluorescence resonance energy transfer (TR-FRET) signal was detected by an Infinite M1000 Pro (Tecan, Männedorf, Switzerland) using instrument settings from the LANCE Ultra cAMP detection kit manual.

[2] = Chromatographic hydrophobicity index on C18 column (lipophilicity); format: physicochemical
Text: (§1) We began with an assay for lipophilicity, affinity for phospholipids (for 40 compounds), and drug binding to human serum albumin (HSA) (for 20 compounds), using chromatographic protocols developed by Valko [46] and implemented in our laboratory [47]. […] These methods allowed the determination of chromatographic hydrophobicity indices (CHIs), binding to HSA (%HSA), and phospholipids (CHIIAM) using a single-gradient elution experiment and comparison to reference substances.
(§2) The mobile phase flow rate was 1.5 mL/min, and the column was maintained at 30 °C. • Chiralpak® HSA (50 mm × 4 mm; 5 µm with safety guard column; Daicel Chiral Technologies, West Chester, PA, USA), mobile phase A: 50 mM ammonium acetate, mobile phase B: HPLC-grade isopropanol (VWR International, Leuven, Belgium). For the first 15 min, the linear gradient from 0 to 20% isopropanol was applied and then held at 20% isopropanol for 12 min. In the last 5 min of the sequence, the mobile phase mixture received a pure ammonium acetate solution. The column temperature was held at 30 °C, whereas the flow rate was 0.9 mL/min.
(§3) The reference substances for the calibration of HSA, C18, and IAM columns were purchased, respectively: acetanilide, butyrophenone, diclofenac, and octanonophenone (Alfa Aesar, Haverhill, MA, USA); acetophenone, benzimidazole, colchicine, indole, indometacin, paracetamol, and theophylline (Sigma-Aldrich, Steinheim, Germany); nicardipine and nizatidine (Cayman Chemical, Ann Arbor, MI, USA); carbamazepine, heptanophenone, hexanophenone, propiophenone, and valerophenone (Acros Organic, Pittsburg, PA, USA). Before chromatographic experiments, solutes were dissolved in dimethyl sulfoxide (Avantor Performance Materials Poland S.A., Gliwice, Poland) to obtain a 200 µg/mL concentration. The detection was performed in the UV region at the wavelength from 190 nm to 300 nm. The injected volume was 5 μL, and each compound was analyzed in triplicate.

[3] = Affinity to phospholipids, IAM column (CHI IAM); format: physicochemical; settings: IAM.PC.DD2 column, pH 7.4
Text: as §1, §2, §3

[4] = target: human serum albumin (HSA) (Homo sapiens, UniProt P02768); assay: Binding to HSA, Chiralpak HSA column; settings: Chiralpak HSA column
human serum albumin (HSA), sequence (P02768 25-609): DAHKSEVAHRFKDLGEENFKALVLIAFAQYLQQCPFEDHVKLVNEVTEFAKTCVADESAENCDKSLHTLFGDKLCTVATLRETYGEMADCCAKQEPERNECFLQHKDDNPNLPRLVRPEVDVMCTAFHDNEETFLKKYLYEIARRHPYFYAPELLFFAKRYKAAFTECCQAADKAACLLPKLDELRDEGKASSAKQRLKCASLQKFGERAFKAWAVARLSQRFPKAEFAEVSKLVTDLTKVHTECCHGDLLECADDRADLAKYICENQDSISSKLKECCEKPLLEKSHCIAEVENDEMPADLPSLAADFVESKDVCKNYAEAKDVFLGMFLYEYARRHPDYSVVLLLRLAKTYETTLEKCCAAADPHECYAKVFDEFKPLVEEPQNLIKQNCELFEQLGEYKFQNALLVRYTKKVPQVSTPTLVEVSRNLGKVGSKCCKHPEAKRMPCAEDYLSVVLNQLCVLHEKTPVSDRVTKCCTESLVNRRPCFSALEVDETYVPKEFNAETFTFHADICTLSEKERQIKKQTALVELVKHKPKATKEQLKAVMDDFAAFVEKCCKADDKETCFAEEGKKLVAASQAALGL
Method in brief: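 HSA binding (%HSA) was estimated by HPLC on a Chiralpak HSA column at 30 °C and 0.9 mL/min. The gradient ran 0–20% isopropanol in 50 mM ammonium acetate over 15 min, then held 12 min. UV detection covered 190–300 nm, and values were calibrated against reference compounds, in triplicate.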

[5] = Metabolic stability in mouse liver microsomes (MLMs); format: in vitro ADME; settings: 120 min; for remaining at 2 h, 50 µM: mouse, mouse liver microsomes
Method: The metabolic stability of PR 68, PR 73, and PR 76 were determined in mouse liver microsomes (MLMs).
The metabolic stability of PR 68 was estimated with mouse liver microsomes (MLMs) (Sigma-Aldrich, St. Louis, MO, USA). […] Cold methanol was then added to the reaction mixture to quench the reaction. The precipitated MLMs were centrifuged, and the supernatant was analyzed by LC/MS with a Waters ACQUITY™ TQD system with a TQ detector (Waters, Milford, USA).
(1 picture or pasted object on this page, not shown here)

[6] = test system: MCF7 breast carcinoma cell line; assay: Antiproliferative activity (MTS), MCF7; settings: Homo sapiens, MCF7, 72 h, read-out: IC50 Values MCF7
[7] = test system: U87MG glioblastoma cells; assay: Antiproliferative activity (MTS), U87MG; settings: Homo sapiens, U-87 MG, 72 h, read-out: IC50 Values U87MG
[8] = test system: U-251 glioblastoma cells; assay: Antiproliferative activity (MTS), U-251; settings: Homo sapiens, U-251, 72 h, read-out: IC50 Values U-251
[9] = test system: 1321N1 astrocytoma cell line; assay: Antiproliferative activity (MTS), 1321N1; settings: Homo sapiens, 1321-N1, 72 h, read-out: IC50 Values 1321N1
[10] = test system: LN-229 glioblastoma cell line; assay: Antiproliferative activity (MTS), LN-229; settings: Homo sapiens, LN-229, 72 h, read-out: IC50 Values LN-229
[11] = test system: AsPC-1 pancreas adenocarcinoma cell line; assay: Antiproliferative activity (MTS), AsPC-1; settings: Homo sapiens, ASPC1, 72 h, read-out: IC50 Values AsPC-1
[12] = target: 5-HT7b receptor (Homo sapiens, UniProt P34969); assay: [3H]-5-CT radioligand binding assay, 5-HT7
5-HT7b receptor, sequence (P34969 1-432 limits assumed): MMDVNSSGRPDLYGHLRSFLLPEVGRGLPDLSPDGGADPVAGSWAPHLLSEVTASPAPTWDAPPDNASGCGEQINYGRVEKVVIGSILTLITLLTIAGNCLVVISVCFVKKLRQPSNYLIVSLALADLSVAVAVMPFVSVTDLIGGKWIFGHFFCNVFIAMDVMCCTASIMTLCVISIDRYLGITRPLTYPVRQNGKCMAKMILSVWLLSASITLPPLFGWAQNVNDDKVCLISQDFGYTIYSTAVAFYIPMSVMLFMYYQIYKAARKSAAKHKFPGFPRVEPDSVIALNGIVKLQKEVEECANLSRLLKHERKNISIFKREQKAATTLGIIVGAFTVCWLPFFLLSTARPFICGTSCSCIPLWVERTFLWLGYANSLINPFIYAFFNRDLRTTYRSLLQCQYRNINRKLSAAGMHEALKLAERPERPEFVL

[13] = target: D2L receptor (Homo sapiens, UniProt P14416); assay: [3H]-raclopride radioligand binding assay, D2
D2L receptor, sequence (P14416 whole entry): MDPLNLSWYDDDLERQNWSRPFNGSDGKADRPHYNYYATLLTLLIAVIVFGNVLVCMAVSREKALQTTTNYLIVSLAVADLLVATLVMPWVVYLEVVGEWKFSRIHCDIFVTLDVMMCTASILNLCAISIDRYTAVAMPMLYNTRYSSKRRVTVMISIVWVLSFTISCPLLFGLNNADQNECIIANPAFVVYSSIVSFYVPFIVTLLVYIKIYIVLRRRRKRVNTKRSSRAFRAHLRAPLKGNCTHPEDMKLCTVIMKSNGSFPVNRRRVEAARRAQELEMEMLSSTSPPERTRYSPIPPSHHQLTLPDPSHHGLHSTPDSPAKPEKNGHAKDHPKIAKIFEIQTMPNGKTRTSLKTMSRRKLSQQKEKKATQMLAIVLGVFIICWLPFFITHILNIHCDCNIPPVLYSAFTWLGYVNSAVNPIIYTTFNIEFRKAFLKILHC

[14] = target: T2, 5-HT1A receptor (Homo sapiens, UniProt P08908); assay: [3H]-8-OHDPAT radioligand binding assay, 5-HT1A
T2 sequence (P08908 1-422): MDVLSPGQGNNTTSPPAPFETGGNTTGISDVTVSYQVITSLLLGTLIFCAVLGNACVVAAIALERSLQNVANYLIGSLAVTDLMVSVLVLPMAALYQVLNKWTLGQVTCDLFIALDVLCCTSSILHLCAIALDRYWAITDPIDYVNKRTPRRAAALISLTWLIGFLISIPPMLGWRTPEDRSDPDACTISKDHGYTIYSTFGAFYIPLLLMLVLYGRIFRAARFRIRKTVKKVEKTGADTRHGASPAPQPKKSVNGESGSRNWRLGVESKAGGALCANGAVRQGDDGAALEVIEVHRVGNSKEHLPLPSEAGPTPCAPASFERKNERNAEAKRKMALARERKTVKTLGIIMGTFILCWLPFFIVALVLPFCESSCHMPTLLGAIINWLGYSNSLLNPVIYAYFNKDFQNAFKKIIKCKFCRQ

| Structure (SMILES) | Kb [1] | CHI C18 pH 2.6 [2] | CHI C18 pH 7.4 [2] | CHI C18 pH 10.5 [2] | CHI IAM [3] | %HSA [4] | logKHSA [4] | remaining at 2 h, 50 µM [5] | IC50 [6] | IC50 [7] | IC50 [8] | IC50 [9] | IC50 [10] | IC50 [11] | Ki [12] | Ki [13] | Ki [14] | metabolized [5] |
| --- | --- | --- | --- | --- | --- | --- | --- | --- | --- | --- | --- | --- | --- | --- | --- | --- | --- | --- |
| CC1NC(NS(=O)(=O)c2cccc3ccccc23)=Nc2cccc(F)c21 (centres unmarked) [PR 73, N -(5-fluoro-4-methyl-3,4-dihydroquinazolin-2-yl)naphthalene-1-sulfonamide] | 0.134 µM | 94.6 | 94.9 | 96.5 | 42.3 | 96.6% | 1.3 | 24.6% | > 25 µM | > 25 µM | > 25 µM | > 25 µM | > 25 µM | > 25 µM | 35.8 µM | 146 µM | 80 µM |  |
| CC1NC(NS(=O)(=O)c2cccc3ccccc23)=Nc2cccc(Cl)c21 (centres unmarked) [PR 68, N -(5-chloro-4-methyl-3,4-dihydroquinazolin-2-yl)naphthalene-1-sulfonamide] | 0.079 µM | 101.4 | 99.2 | 103.0 | 45.8 | 97.7% | 1.5 | 51.1% | > 25 µM | > 25 µM | > 25 µM | > 25 µM | > 25 µM | > 25 µM | 19.3 µM | 622 µM | 35.1 µM | 49% |
